Measured values taken from US20250057813A1, “APOPTOSIS RELATED PROTEIN IN THE TGF-BETA SIGNALING PATHWAY (ARTS) MIMETIC COMPOUNDS, COMPOSITIONS, METHODS AND USES THEREOF IN INDUCTION OF APOPTOSIS” (Carmel-Haifa University Economic Corporation Ltd., priority 2022, published 2025).
“Also recorded” adds a separate entry of the source.

Assays:
[1] = target: T1, complex formation between XIAP and Bcl-2 (Homo sapiens, UniProt P10415+P98170); test: Co-immunoprecipitation in HCT 116 XIAP KO cells transfected with GFP-XIAP and Flag-Bcl-2; assay type: cell-based; settings: 20 uM B3
T1 construct: expressed in transfected cells; host or cells: HCT 116 XIAP KO cells
T1 sequence (P98170 whole entry): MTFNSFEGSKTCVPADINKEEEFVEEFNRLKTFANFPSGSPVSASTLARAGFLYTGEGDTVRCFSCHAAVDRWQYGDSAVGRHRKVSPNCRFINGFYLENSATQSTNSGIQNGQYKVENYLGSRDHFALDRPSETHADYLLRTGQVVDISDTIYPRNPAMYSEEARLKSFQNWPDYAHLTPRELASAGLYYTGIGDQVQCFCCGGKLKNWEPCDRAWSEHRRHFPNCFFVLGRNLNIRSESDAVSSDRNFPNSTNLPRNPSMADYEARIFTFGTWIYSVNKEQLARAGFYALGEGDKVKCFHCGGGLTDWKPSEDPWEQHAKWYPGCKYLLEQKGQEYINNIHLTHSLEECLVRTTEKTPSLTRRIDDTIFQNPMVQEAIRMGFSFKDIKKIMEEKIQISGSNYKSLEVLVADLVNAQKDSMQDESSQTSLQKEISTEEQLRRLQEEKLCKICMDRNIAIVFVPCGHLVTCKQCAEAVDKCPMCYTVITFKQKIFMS
T1 sequence (P10415 whole entry): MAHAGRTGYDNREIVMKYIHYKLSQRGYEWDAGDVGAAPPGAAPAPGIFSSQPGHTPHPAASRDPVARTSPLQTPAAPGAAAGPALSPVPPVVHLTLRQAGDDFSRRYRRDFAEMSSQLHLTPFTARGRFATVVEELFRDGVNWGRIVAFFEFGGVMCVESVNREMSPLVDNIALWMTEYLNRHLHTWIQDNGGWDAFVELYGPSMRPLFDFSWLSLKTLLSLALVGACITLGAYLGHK
Description: Protein extracts were prepared with lysis buffer containing 150 mM NaCl, 50 mM Tris-HCl (pH 8), 1% NP-40, 0.5% deoxycholate acid with protease inhibitors (mini complete, Roche). Protein levels were determined and equal amounts were used for each sample. Lysates were pre-cleared with […] mouse IgG (Sigma) coupled with protein A/G sepharose mix (Amersham Biosciences). Complexes were incubated overnight at 4° C., followed by low-speed centrifugation. Supernatants were immunoprecipitated using […] of monoclonal anti-Bcl-2 antibodies (BD) overnight. Protein A/G sepharose beads were added to immunoprecipitate complex for 4 hours, collected and washed four times with PBS and then responded and heated in Sample buffer ×2 for 10 minutes.

PBMC = test: Viability assay (SRB), normal cell control; assay type: cell-based, Human; settings: 72 hrs, 10 mM to 0.1 μM
Description: (§1) The assay was performed at six tenfold serial dilutions of the B3 compounds: 10 mM (stock), 1 mM, 100 μM, 10 μM, 1 μM and 0.1 μM. The screen was performed on 93 cancer cell lines and PBMC as normal cell control. The B3 compound was incubated with the cells for 72 hours. The following cancer cell lines were screened:
(§2) The Sulforhodamine B (SRB) assay was used as a screening method. Briefly, the method relies on the property of SRB, to bind stoichiometrically to proteins under mild acidic conditions and to be extracted under basic conditions. Thus, the amount of bound dye can be used as a proxy for cell mass, which can then be extrapolated to measure cell proliferation. The protocol can be divided into four main steps: preparation of treatment, incubation of cells with treatment of choice, cell fixation and SRB staining and absorbance measurement.

A-375 cells = test: Viability assay (SRB), cancer cell line screen; assay type: cell-based; settings: Homo sapiens; A-375, 72 hours incubation; read-out: GI50 score
Description: as §1, §2

93 cancer cell lines = test: Viability assay (SRB), cancer cell line screen; assay type: cell-based; settings: 72 hrs, 10 mM to 0.1 μM
Description: as §1, §2

binding of XIAP to Bcl-2 = target: T2, binding of XIAP to Bcl-2 (Homo sapiens, UniProt P10415+P98170); test: BiFC assay in A375 melanoma cells (Bcl-2-VC and XIAP-VN); assay type: cell-based; settings: 20 μM B3, 24 h
T2 construct: expressed in transfected cells; host or cells: A375 melanoma cells
T2 sequence (P98170 whole entry): as the sequence (P98170 whole entry) above
T2 sequence (P10415 whole entry): as the sequence (P10415 whole entry) above
From the text: (§3) The split-Venus BiFC system was used to evaluate close proximity indicating possible direct binding between pairs of proteins. The proteins were fused either to the N-terminal part of the Venus-YFP (yellow fluorescence protein) (VN) or the C-terminal part (VC). All Venus fragments were fused to the C-terminal sequences of these proteins. The Jun and Fos pair was used as a positive control (P.C.), and the Jun and FosdeltaZIP pair was used as a negative control (N.C.). A vector encoding dsRed was used as a transfection efficiency marker. Cells were seeded in 12 well plates overnight. Cells were then transfected with (Bcl-2-VC, ARTS-VN, XIAP-VN and XIAP-VC) for 24-36 hours. Cells were then treated with apoptotic inducing reagents for 24 hrs.

[2] = test system: A375 human melanoma cells; test: SDS PAGE and Western blot analysis of A375 cells; assay type: cell-based
Description: The cells were lysed in WCE (whole-cell extract) buffer [25 mM Hepes, pH 7.7, 0.3M NaCl, 1.5 mM MgCl2, 0.2 mM EDTA, 0.1% Triton X-100, 100[μg/ml PMSF and protease inhibitor cocktail (Roche, 1:100 dilution)]. 100 μg of total cell protein, measured with the Bio-Rad Protein Assay kit, were separated by SDS-PAGE (12%) followed by transfer for 2 h on to a nitrocellulose membrane. The membrane was blocked with 5% (w/v) non-fat dried skimmed milk powder in PBS supplemented with 0.05% Tween20 (PBS-T) for 1 hour at room temperature (R.T). Membrane was then probed with primary antibody at 4° C. overnight. Next, the membrane was incubated with the appropriate HRP-conjugated secondary antibody, for 1 hour at R.T. and washed 15 min ×3 with PBS-T. WesternBright ECL (Advansta) was added to the membrane for 2 min and analyzed using ImageQuant LAS-4000 analyzer (GE Healthcare Life Sciences) & “ImageQuant LAS-4000” software (GE Healthcare Life Sciences). Densitometry analysis was performed using ImageQuant total lab 7 (GE Healthcare Life Sciences), image analysis software.
Cells were lysed in whole-cell extract buffer [25 mM HEPES, pH 7.7, […], 1.5 mM MgCl2, 0.2 mM EDTA, 0.1% Triton X-100, 100 μg/ml phenylmethylsulfonyl fluoride (PMSF) and protease inhibitor cocktail (Roche, 1:100 dilution)] and placed on ice for 30 min (vortexing once after 15 min). After 30 minutes, the samples were centrifuged at 13,000×g for 10 minutes at 4° C. The supernatants containing total protein were measured for protein concentration using Bio-Rad Protein Assay Dye Reagent Concentrate Kit. 40 to […] was separated by sodium dodecyl sulfate-polyacrylamide gel electrophoresis (SDS-PAGE) (12% or 7.5%), followed by transfer to a nitrocellulose membrane. The membranes were blocked with 5% (w/v) non-fat dried skimmed milk powder in PBS supplemented with 0.05% Tween-20 (PBS-T) for 1 h at RT. Next, primary antibodies were added at 4° C. overnight or for 2 h at room temperature. Membranes were then incubated with secondary antibody for 1 h at RT and washed three times for 15 min each with PBS-T. Western Bright ECL (Advansta) was added to the membrane for 30-60 s and analyzed using Image Quant LAS-4000 (GE Healthcare Life Sciences) and Image Quant LAS-4000 software (GE Healthcare Life Sciences).

[3] = target: T3, interaction between ARTS and Bcl2 (Homo sapiens, UniProt P10415); test: BiFC assay between ARTS and Bcl-2; assay type: cell-based; settings: 20 μM
T3 construct: expressed in transfected cells; host or cells: A-375 or HeLa wt cells (the legend names both)
T3 sequence (P10415 whole entry): as above
From the text: as §3

## Cn1ccnc1C(=O)c1ccc(NC(=O)C(=O)N[C@H](CO)Cc2ccccc2)cc1 [B3, (S)-N1-(1-hydroxy-3-phenylpropan-2-yl)-N2-(4-(1-methyl-1H-imidazole-2-carbonyl)phenyl)oxalamide]
[1]
  complex formation between XIAP and Bcl-2: significantly increase
PBMC
  sensitivity of normal cell control to B3: resistant
A-375 cells
  GI50: 14.8 µM
93 cancer cell lines
  sensitivity of cancer cell lines to B3: sensitive
Binding of XIAP to Bcl-2
  binding of XIAP to Bcl-2: slightly increased; also recorded: increased
[2]; 20 μM, 24 hrs
  Bcl-2 levels: clearly reduced
  XIAP levels: clearly reduced
  cleavage of Caspase 3: increased
  cleavage of Caspase 9: increased
  cleavage of PARP: increased
[2]; 20, 30, 40 μM B3, 24 hours
  MDM2 levels: reduction
  XIAP levels: reduction
  cPARP or caspase3: elevation
  p53 levels: elevation
[2]; B3 in combined treatment with ABT-199, 24 hrs
  ARTS levels: downregulated
[2]; six hours of B3 treatment
  Bcl-2 levels: decreased
[3]; 3 hours
  binding of ARTS to Bcl-2: increase
[3]; 24 hours
  binding of ARTS to Bcl-2: no effect
